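Protocol summary: plate cells (96-well), add compound at 5 concentrations, incubate 48 h, interpolate endpoints linearly. GI50 marks 50% less growth. TGI denotes the concentration required for complete inhibition of growth.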
What was measured:
Test in all cases: NCI anticancer screen, dose series, 48 h
HOP-62 NSCLC = system: HOP-62 NSCLC
MDA-MB-435 = system: MDA-MB-435
RXF 393 renal = system: RXF 393 renal
TK-10 renal = system: TK-10 renal
BT-549 breast = system: BT-549 breast
MOLT-4 leukemia = system: MOLT-4 leukemia
NCI/ADR-RES ovarian = system: NCI/ADR-RES ovarian
DU-145 prostate = system: DU-145 prostate
786-0 renal = system: 786-0 renal
PC-3 prostate = system: PC-3 prostate
SNB-75 CNS = system: SNB-75 CNS
SK-MEL-5 melanoma = system: SK-MEL-5 melanoma
CAKI-1 renal = system: CAKI-1 renal
KM12 colon = system: KM12 colon
HL-60(TB) leukemia = system: HL-60(TB) leukemia
K-562 leukemia = system: K-562 leukemia
SK-OV-3 ovarian = system: SK-OV-3 ovarian
MALME-3M melanoma = system: MALME-3M melanoma
HCC-2998 colon = system: HCC-2998 colon
SF-539 CNS = system: SF-539 CNS
NCI-H460 lung = system: NCI-H460 lung
MCF7 breast = system: MCF7 breast
HS 578T breast = system: HS 578T breast
UACC-62 melanoma = system: UACC-62 melanoma
A498 renal = system: A498 renal
NCI-H226 lung = system: NCI-H226 lung
NCI-H23 lung = system: NCI-H23 lung
SW-620 colon = system: SW-620 colon
IGROV1 ovarian = system: IGROV1 ovarian
HOP-92 NSCLC = system: HOP-92 NSCLC
SK-MEL-28 melanoma = system: SK-MEL-28 melanoma
OVCAR-3 ovarian = system: OVCAR-3 ovarian
EKVX NSCLC = system: EKVX NSCLC
MDA-MB-468 breast = system: MDA-MB-468 breast
UO-31 renal = system: UO-31 renal
A549 NSCLC = system: A549 NSCLC
SN12C renal = system: SN12C renal
CCRF-CEM leukemia = system: CCRF-CEM leukemia
HCT-15 colon = system: HCT-15 colon
COLO 205 colon = system: COLO 205 colon
SK-MEL-2 melanoma = system: SK-MEL-2 melanoma
M14 melanoma = system: M14 melanoma
HCT-116 colon = system: HCT-116 colon
LOX IMVI melanoma = system: LOX IMVI melanoma
MDA-MB-231 breast = system: MDA-MB-231 breast
SNB-19 CNS = system: SNB-19 CNS
UACC-257 melanoma = system: UACC-257 melanoma
T-47D breast = system: T-47D breast
NCI-H522 lung = system: NCI-H522 lung
SR leukemia = system: SR leukemia
SF-295 CNS = system: SF-295 CNS
OVCAR-4 ovarian = system: OVCAR-4 ovarian
OVCAR-5 ovarian = system: OVCAR-5 ovarian
ACHN renal = system: ACHN renal
HT29 colon = system: HT29 colon

SMILES: [2H]C([2H])([2H])Oc1ccc2ncc(C#Cc3cncc(C(=O)Nc4ccc(CN5CCN(C)CC5)c(C(F)(F)F)c4)c3)n2n1
- GI50 (HOP-62 NSCLC): 0.656 µM
- TGI (HOP-62 NSCLC): 4.54 µM
- GI50 (MDA-MB-435): 0.321 µM
- TGI (MDA-MB-435): 1.77 µM
- GI50 (RXF 393 renal): 1.15 µM
- TGI (RXF 393 renal): 2.5 µM
- GI50 (TK-10 renal): 3.17 µM
- TGI (TK-10 renal): 7.63 µM
- GI50 (BT-549 breast): 0.833 µM
- TGI (BT-549 breast): 10.4 µM
- GI50 (MOLT-4 leukemia): 0.0668 µM
- TGI (MOLT-4 leukemia): 2.02 µM
- GI50 (NCI/ADR-RES ovarian): 1.18 µM
- TGI (NCI/ADR-RES ovarian): 2.65 µM
- GI50 (DU-145 prostate): 0.93 µM
- TGI (DU-145 prostate): 2.15 µM
- GI50 (786-0 renal): 1.37 µM
- TGI (786-0 renal): 2.66 µM
- GI50 (PC-3 prostate): 0.94 µM
- TGI (PC-3 prostate): 2.35 µM
- GI50 (SNB-75 CNS): 1.92 µM
- TGI (SNB-75 CNS): 6.09 µM
- GI50 (SK-MEL-5 melanoma): 2.27 µM
- TGI (SK-MEL-5 melanoma): 6.89 µM
- GI50 (CAKI-1 renal): 0.619 µM
- TGI (CAKI-1 renal): 4.54 µM
- GI50 (KM12 colon): 0.00942 µM
- TGI (KM12 colon): 1.35 µM
- GI50 (HL-60(TB) leukemia): 0.101 µM
- TGI (HL-60(TB) leukemia): 1.99 µM
- GI50 (K-562 leukemia): 0.00942 µM
- TGI (K-562 leukemia): 94.2 µM
- GI50 (SK-OV-3 ovarian): 4.03 µM
- TGI (SK-OV-3 ovarian): 18.6 µM
- GI50 (MALME-3M melanoma): 0.291 µM
- TGI (MALME-3M melanoma): 1.49 µM
- GI50 (HCC-2998 colon): 1.03 µM
- TGI (HCC-2998 colon): 2.7 µM
- GI50 (SF-539 CNS): 0.112 µM
- TGI (SF-539 CNS): 1.06 µM
- GI50 (NCI-H460 lung): 0.239 µM
- TGI (NCI-H460 lung): 1.81 µM
- GI50 (MCF7 breast): 0.0503 µM
- TGI (MCF7 breast): 1.46 µM
- GI50 (HS 578T breast): 0.444 µM
- TGI (HS 578T breast): 6.36 µM
- GI50 (UACC-62 melanoma): 5.27 µM
- TGI (UACC-62 melanoma): 21 µM
- GI50 (A498 renal): 8.64 µM
- TGI (A498 renal): 27.8 µM
- GI50 (NCI-H226 lung): 0.124 µM
- TGI (NCI-H226 lung): 2.59 µM
- GI50 (NCI-H23 lung): 0.35 µM
- TGI (NCI-H23 lung): 1.63 µM
- GI50 (SW-620 colon): 0.167 µM
- TGI (SW-620 colon): 1.18 µM
- GI50 (IGROV1 ovarian): 0.581 µM
- TGI (IGROV1 ovarian): 2.04 µM
- GI50 (HOP-92 NSCLC): 0.173 µM
- TGI (HOP-92 NSCLC): 0.833 µM
- GI50 (SK-MEL-28 melanoma): 1.16 µM
- TGI (SK-MEL-28 melanoma): 2.41 µM
- GI50 (OVCAR-3 ovarian): 1.6 µM
- TGI (OVCAR-3 ovarian): 5.83 µM
- GI50 (EKVX NSCLC): 0.606 µM
- TGI (EKVX NSCLC): 2.22 µM
- GI50 (MDA-MB-468 breast): 1.2 µM
- TGI (MDA-MB-468 breast): 2.95 µM
- GI50 (UO-31 renal): 1.03 µM
- TGI (UO-31 renal): 2.22 µM
- GI50 (A549 NSCLC): 0.742 µM
- TGI (A549 NSCLC): 2.37 µM
- GI50 (SN12C renal): 0.498 µM
- TGI (SN12C renal): 1.81 µM
- GI50 (CCRF-CEM leukemia): 0.043 µM
- TGI (CCRF-CEM leukemia): 3.74 µM
- GI50 (HCT-15 colon): 0.387 µM
- TGI (HCT-15 colon): 1.64 µM
- GI50 (COLO 205 colon): 0.238 µM
- TGI (COLO 205 colon): 0.719 µM
- GI50 (SK-MEL-2 melanoma): 1.09 µM
- TGI (SK-MEL-2 melanoma): 6.34 µM
- GI50 (M14 melanoma): 0.377 µM
- TGI (M14 melanoma): 1.62 µM
- GI50 (HCT-116 colon): 0.0677 µM
- TGI (HCT-116 colon): 1.24 µM
- GI50 (LOX IMVI melanoma): 0.446 µM
- TGI (LOX IMVI melanoma): 1.8 µM
- GI50 (MDA-MB-231 breast): 0.278 µM
- TGI (MDA-MB-231 breast): 1.53 µM
- GI50 (SNB-19 CNS): 1.39 µM
- TGI (SNB-19 CNS): 2.64 µM
- GI50 (UACC-257 melanoma): 0.995 µM
- TGI (UACC-257 melanoma): 3.73 µM
- GI50 (T-47D breast): 12.1 µM
- TGI (T-47D breast): 57.3 µM
- GI50 (NCI-H522 lung): 1.14 µM
- TGI (NCI-H522 lung): 7.23 µM
- GI50 (SR leukemia): 0.0606 µM
- TGI (SR leukemia): 94.2 µM
- GI50 (SF-295 CNS): 0.839 µM
- TGI (SF-295 CNS): 7.23 µM
- GI50 (OVCAR-4 ovarian): 1 µM
- TGI (OVCAR-4 ovarian): 2.63 µM
- GI50 (OVCAR-5 ovarian): 0.507 µM
- TGI (OVCAR-5 ovarian): 1.8 µM
- GI50 (ACHN renal): 0.574 µM
- TGI (ACHN renal): 11.2 µM
- GI50 (HT29 colon): 0.303 µM
- TGI (HT29 colon): 1.41 µM

— PubChem BioAssay (NCI)
